{"source": "the CombiSolv-Exp solvation set (Vermeire and Green 2021)", "assay": "solvent given as SMILES", "data": [{"smiles": "CCC1CCCCC1", "values": [{"measurement": "solvation free energy, 298 K", "setting": "in Brc1ccccc1", "value": -5.2, "unit": "kcal/mol"}, {"measurement": "solvation free energy, 298 K", "setting": "in C1CCCCC1", "value": -5.59, "unit": "kcal/mol"}, {"measurement": "solvation free energy, 298 K", "setting": "in C1CCOC1", "value": -5.38, "unit": "kcal/mol"}, {"measurement": "solvation free energy, 298 K", "setting": "in C1COCCO1", "value": -4.67, "unit": "kcal/mol"}, {"measurement": "solvation free energy, 298 K", "setting": "in C=CCCCC", "value": -5.39, "unit": "kcal/mol"}, {"measurement": "solvation free energy, 298 K", "setting": "in C=CCCCCCC", "value": -5.34, "unit": "kcal/mol"}, {"measurement": "solvation free energy, 298 K", "setting": "in C=CCCCCCCCC", "value": -5.3, "unit": "kcal/mol"}, {"measurement": "solvation free energy, 298 K", "setting": "in CC1COC(=O)O1", "value": -3.41, "unit": "kcal/mol"}, {"measurement": "solvation free energy, 298 K", "setting": "in CC#N", "value": -3.87, "unit": "kcal/mol"}, {"measurement": "solvation free energy, 298 K", "setting": "in CC(=O)N(C)C", "value": -4.21, "unit": "kcal/mol"}, {"measurement": "solvation free energy, 298 K", "setting": "in CC(=O)O", "value": -4.16, "unit": "kcal/mol"}, {"measurement": "solvation free energy, 298 K", "setting": "in CC(=O)c1ccccc1", "value": -4.54, "unit": "kcal/mol"}, {"measurement": "solvation free energy, 298 K", "setting": "in CC(C)=O", "value": -4.54, "unit": "kcal/mol"}, {"measurement": "solvation free energy, 298 K", "setting": "in CC(C)CC(C)(C)C", "value": -5.28, "unit": "kcal/mol"}, {"measurement": "solvation free energy, 298 K", "setting": "in CC(C)CCCC(C)CCCC(C)CCCCC(C)CCCC(C)CCCC(C)C", "value": -4.99, "unit": "kcal/mol"}, {"measurement": "solvation free energy, 298 K", "setting": "in CC(C)CCO", "value": -4.74, "unit": "kcal/mol"}, {"measurement": "solvation free energy, 298 K", "setting": "in CC(C)O", "value": -4.53, "unit": "kcal/mol"}, {"measurement": "solvation free energy, 298 K", "setting": "in CC(C)OC(C)C", "value": -5.26, "unit": "kcal/mol"}, {"measurement": "solvation free energy, 298 K", "setting": "in CCBr", "value": -5.53, "unit": "kcal/mol"}, {"measurement": "solvation free energy, 298 K", "setting": "in CCC#N", "value": -4.51, "unit": "kcal/mol"}, {"measurement": "solvation free energy, 298 K", "setting": "in CCC(C)=O", "value": -4.81, "unit": "kcal/mol"}, {"measurement": "solvation free energy, 298 K", "setting": "in CCCC#N", "value": -4.46, "unit": "kcal/mol"}, {"measurement": "solvation free energy, 298 K", "setting": "in CCCC(=O)OCC", "value": -5.04, "unit": "kcal/mol"}, {"measurement": "solvation free energy, 298 K", "setting": "in CCCC(C)=O", "value": -4.91, "unit": "kcal/mol"}, {"measurement": "solvation free energy, 298 K", "setting": "in CCCCC", "value": -5.41, "unit": "kcal/mol"}, {"measurement": "solvation free energy, 298 K", "setting": "in CCCCCC", "value": -5.42, "unit": "kcal/mol"}, {"measurement": "solvation free energy, 298 K", "setting": "in CCCCCC(C)=O", "value": -4.96, "unit": "kcal/mol"}, {"measurement": "solvation free energy, 298 K", "setting": "in CCCCCCC", "value": -5.39, "unit": "kcal/mol"}, {"measurement": "solvation free energy, 298 K", "setting": "in CCCCCCCC", "value": -5.38, "unit": "kcal/mol"}, {"measurement": "solvation free energy, 298 K", "setting": "in CCCCCCCCC", "value": -5.31, "unit": "kcal/mol"}, {"measurement": "solvation free energy, 298 K", "setting": "in CCCCCCCCC=CCCCCCCCC(=O)OCC(COC(=O)CCCCCCCC=CCCCCCCCC)OC(=O)CCCCCCCC=CCCCCCCCC", "value": -5.07, "unit": "kcal/mol"}, {"measurement": "solvation free energy, 298 K", "setting": "in CCCCCCCCCC", "value": -5.28, "unit": "kcal/mol"}, {"measurement": "solvation free energy, 298 K", "setting": "in CCCCCCCCCCCC", "value": -5.21, "unit": "kcal/mol"}, {"measurement": "solvation free energy, 298 K", "setting": "in CCCCCCCCCCCCCCCC", "value": -5.15, "unit": "kcal/mol"}, {"measurement": "solvation free energy, 298 K", "setting": "in CCCCCCCCO", "value": -4.84, "unit": "kcal/mol"}, {"measurement": "solvation free energy, 298 K", "setting": "in CCCCCCOC(C)=O", "value": -5.05, "unit": "kcal/mol"}, {"measurement": "solvation free energy, 298 K", "setting": "in CCCCO", "value": -4.69, "unit": "kcal/mol"}, {"measurement": "solvation free energy, 298 K", "setting": "in CCCCOC(=O)c1ccccc1C(=O)OCCCC", "value": -4.8, "unit": "kcal/mol"}, {"measurement": "solvation free energy, 298 K", "setting": "in CCCCOC(C)=O", "value": -4.99, "unit": "kcal/mol"}, {"measurement": "solvation free energy, 298 K", "setting": "in CCCCOCCCC", "value": -5.24, "unit": "kcal/mol"}, {"measurement": "solvation free energy, 298 K", "setting": "in CCCO", "value": -4.55, "unit": "kcal/mol"}, {"measurement": "solvation free energy, 298 K", "setting": "in CCN(CC)CC", "value": -5.43, "unit": "kcal/mol"}, {"measurement": "solvation free energy, 298 K", "setting": "in CCO", "value": -4.47, "unit": "kcal/mol"}, {"measurement": "solvation free energy, 298 K", "setting": "in CCOC(=O)c1ccccc1C(=O)OCC", "value": -4.24, "unit": "kcal/mol"}, {"measurement": "solvation free energy, 298 K", "setting": "in CCOC(C)=O", "value": -4.83, "unit": "kcal/mol"}, {"measurement": "solvation free energy, 298 K", "setting": "in CCOCC", "value": -5.33, "unit": "kcal/mol"}, {"measurement": "solvation free energy, 298 K", "setting": "in CCOCCOCCOCC", "value": -4.82, "unit": "kcal/mol"}, {"measurement": "solvation free energy, 298 K", "setting": "in CCOc1ccccc1", "value": -4.96, "unit": "kcal/mol"}, {"measurement": "solvation free energy, 298 K", "setting": "in CN1CCCC1=O", "value": -4.2, "unit": "kcal/mol"}, {"measurement": "solvation free energy, 298 K", "setting": "in CN(C)C=O", "value": -4.06, "unit": "kcal/mol"}, {"measurement": "solvation free energy, 298 K", "setting": "in CN(C)P(=O)(N(C)C)N(C)C", "value": -4.49, "unit": "kcal/mol"}, {"measurement": "solvation free energy, 298 K", "setting": "in CNC=O", "value": -3.73, "unit": "kcal/mol"}, {"measurement": "solvation free energy, 298 K", "setting": "in CO", "value": -4.05, "unit": "kcal/mol"}, {"measurement": "solvation free energy, 298 K", "setting": "in COC(C)=O", "value": -4.62, "unit": "kcal/mol"}, {"measurement": "solvation free energy, 298 K", "setting": "in COCCO", "value": -4.06, "unit": "kcal/mol"}, {"measurement": "solvation free energy, 298 K", "setting": "in COc1ccccc1", "value": -4.91, "unit": "kcal/mol"}, {"measurement": "solvation free energy, 298 K", "setting": "in CS(C)=O", "value": -3.28, "unit": "kcal/mol"}, {"measurement": "solvation free energy, 298 K", "setting": "in Cc1ccc(C)cc1", "value": -5.35, "unit": "kcal/mol"}, {"measurement": "solvation free energy, 298 K", "setting": "in Cc1ccccc1", "value": -5.37, "unit": "kcal/mol"}, {"measurement": "solvation free energy, 298 K", "setting": "in Cc1ccccn1", "value": -5, "unit": "kcal/mol"}, {"measurement": "solvation free energy, 298 K", "setting": "in ClC(Cl)(Cl)Cl", "value": -5.58, "unit": "kcal/mol"}, {"measurement": "solvation free energy, 298 K", "setting": "in ClC(Cl)Cl", "value": -5.46, "unit": "kcal/mol"}, {"measurement": "solvation free energy, 298 K", "setting": "in ClCCCl", "value": -4.91, "unit": "kcal/mol"}, {"measurement": "solvation free energy, 298 K", "setting": "in ClCCl", "value": -5.2, "unit": "kcal/mol"}, {"measurement": "solvation free energy, 298 K", "setting": "in Clc1ccccc1", "value": -5.37, "unit": "kcal/mol"}, {"measurement": "solvation free energy, 298 K", "setting": "in FC(F)(F)C(F)(F)C(F)(F)C(F)(F)C(F)(F)C(F)(F)C(F)(F)C(F)(F)F", "value": -3.5, "unit": "kcal/mol"}, {"measurement": "solvation free energy, 298 K", "setting": "in FC(F)(F)C(F)(F)C(F)(F)C(F)(F)C(F)(F)C(F)(F)F", "value": -3.53, "unit": "kcal/mol"}, {"measurement": "solvation free energy, 298 K", "setting": "in Fc1ccccc1", "value": -5.22, "unit": "kcal/mol"}, {"measurement": "solvation free energy, 298 K", "setting": "in ICI", "value": -3.85, "unit": "kcal/mol"}, {"measurement": "solvation free energy, 298 K", "setting": "in N#Cc1ccccc1", "value": -4.57, "unit": "kcal/mol"}, {"measurement": "solvation free energy, 298 K", "setting": "in NC=O", "value": -1.81, "unit": "kcal/mol"}, {"measurement": "solvation free energy, 298 K", "setting": "in Nc1ccccc1", "value": -3.93, "unit": "kcal/mol"}, {"measurement": "solvation free energy, 298 K", "setting": "in O", "value": 2.14, "unit": "kcal/mol"}, {"measurement": "solvation free energy, 298 K", "setting": "in O=C1CCCCC1", "value": -4.85, "unit": "kcal/mol"}, {"measurement": "solvation free energy, 298 K", "setting": "in O=C1CCCO1", "value": -3.62, "unit": "kcal/mol"}, {"measurement": "solvation free energy, 298 K", "setting": "in O=CN1CCOCC1", "value": -3.52, "unit": "kcal/mol"}, {"measurement": "solvation free energy, 298 K", "setting": "in O=Cc1ccco1", "value": -3.95, "unit": "kcal/mol"}, {"measurement": "solvation free energy, 298 K", "setting": "in OCCCCCO", "value": -3.47, "unit": "kcal/mol"}, {"measurement": "solvation free energy, 298 K", "setting": "in OCCCCO", "value": -3.26, "unit": "kcal/mol"}, {"measurement": "solvation free energy, 298 K", "setting": "in OCCCO", "value": -2.9, "unit": "kcal/mol"}, {"measurement": "solvation free energy, 298 K", "setting": "in OCCO", "value": -2.11, "unit": "kcal/mol"}, {"measurement": "solvation free energy, 298 K", "setting": "in OCCOCCO", "value": -2.81, "unit": "kcal/mol"}, {"measurement": "solvation free energy, 298 K", "setting": "in OCCOCCOCCO", "value": -3.01, "unit": "kcal/mol"}, {"measurement": "solvation free energy, 298 K", "setting": "in OCc1ccccc1", "value": -4.14, "unit": "kcal/mol"}, {"measurement": "solvation free energy, 298 K", "setting": "in S=C=S", "value": -5.65, "unit": "kcal/mol"}, {"measurement": "solvation free energy, 298 K", "setting": "in c1ccccc1", "value": -5.35, "unit": "kcal/mol"}, {"measurement": "solvation free energy, 298 K", "setting": "in c1ccncc1", "value": -4.73, "unit": "kcal/mol"}]}, {"smiles": "NC(N)=S", "values": [{"measurement": "solvation free energy, 298 K", "setting": "in CCCCCCO", "value": -9.57, "unit": "kcal/mol"}, {"measurement": "solvation free energy, 298 K", "setting": "in CCCCCO", "value": -9.72, "unit": "kcal/mol"}, {"measurement": "solvation free energy, 298 K", "setting": "in CCCCO", "value": -9.97, "unit": "kcal/mol"}, {"measurement": "solvation free energy, 298 K", "setting": "in CCCO", "value": -10.2, "unit": "kcal/mol"}, {"measurement": "solvation free energy, 298 K", "setting": "in CCO", "value": -10.6, "unit": "kcal/mol"}]}, {"smiles": "CCCCCCCCCCC", "values": [{"measurement": "solvation free energy, 298 K", "setting": "in CCCCCC", "value": -7.56, "unit": "kcal/mol"}, {"measurement": "solvation free energy, 298 K", "setting": "in CN(C)C=O", "value": -5.57, "unit": "kcal/mol"}, {"measurement": "solvation free energy, 298 K", "setting": "in COCCO", "value": -5.15, "unit": "kcal/mol"}]}, {"smiles": "CC(C)(C)CCO", "values": [{"measurement": "solvation free energy, 298 K", "setting": "in CCCCCCCC", "value": -4.85, "unit": "kcal/mol"}, {"measurement": "solvation free energy, 298 K", "setting": "in CCCCCCCCCC", "value": -4.72, "unit": "kcal/mol"}]}, {"smiles": "CCCCCCCC(=O)OC", "values": [{"measurement": "solvation free energy, 298 K", "setting": "in O", "value": -2.04, "unit": "kcal/mol"}]}, {"smiles": "C1COCCOCCOCCOCCOC1", "values": [{"measurement": "solvation free energy, 298 K", "setting": "in Cc1cccc(C)c1", "value": -11.4, "unit": "kcal/mol"}, {"measurement": "solvation free energy, 298 K", "setting": "in O", "value": -12.5, "unit": "kcal/mol"}]}, {"smiles": "Cc1cc(O)ccc1[N+](=O)[O-]", "values": [{"measurement": "solvation free energy, 298 K", "setting": "in CCCCOCCCC", "value": -12.1, "unit": "kcal/mol"}, {"measurement": "solvation free energy, 298 K", "setting": "in O", "value": -9.89, "unit": "kcal/mol"}]}]}
